Test results published in paper PMC10938783, “A novel pan-PI3K inhibitor KTC1101 synergizes with anti-PD-1 therapy by targeting tumor suppression and immune activation” (Molecular Cancer, 2024).

System: B16 cells gene expression
Experiment: RNA-Seq (DEGs, GSEA, heatmaps) of B16 cells
Conditions: B16 cells

With `COc1cc(N)cc2c1nc(C(F)F)n2-c1nc(N2CCCOCC2)nc(N2CCOCC2)n1` [KTC1101, 2-(difluoromethyl)-4-methoxy-1-(4-morpholino-6-(1,4-oxazepan-4-yl)-1,3,5-triazin-2-yl)-1H-benzo[d]imidazol-6-amine] the “enrichmentScore, mmu04211 Longevity regulating pathway” value (KTC1101 0.2μM, GSEA KEGG) was 0.2589, the “enrichmentScore, mmu04213 Longevity regulating pathway - multiple species” value (KTC1101 0.2μM, GSEA KEGG) was 0.2778 and the “enrichmentScore, mmu04215 Apoptosis - multiple species” value (KTC1101 0.2μM, GSEA KEGG) was 0.3327. For the same molecule, the “enrichmentScore, mmu04216 Ferroptosis” value (KTC1101 0.2μM, GSEA KEGG) was -0.2787, the “enrichmentScore, mmu04217 Necroptosis” value (KTC1101 0.2μM, GSEA KEGG) was -0.2455 and the “enrichmentScore, mmu04270 Vascular smooth muscle contraction” value (KTC1101 0.2μM, GSEA KEGG) was 0.2845. For the same molecule, the “enrichmentScore, mmu04360 Axon guidance” value (KTC1101 0.2μM, GSEA KEGG) was 0.2929, the “enrichmentScore, mmu04392 Hippo signaling pathway - multiple species” value (KTC1101 0.2μM, GSEA KEGG) was 0.3945 and the “enrichmentScore, mmu04514 Cell adhesion molecules” value (KTC1101 0.2μM, GSEA KEGG) was 0.3446. For the same molecule, the “enrichmentScore, mmu04520 Adherens junction” value (KTC1101 0.2μM, GSEA KEGG) was 0.258, the “enrichmentScore, mmu04530 Tight junction” value (KTC1101 0.2μM, GSEA KEGG) was -0.1527 and the “enrichmentScore, mmu04550 Signaling pathways regulating pluripotency of stem cells” value (KTC1101 0.2μM, GSEA KEGG) was 0.3252. The “enrichmentScore, mmu04611 Platelet activation” value (KTC1101 0.2μM, GSEA KEGG) was 0.2724, the “enrichmentScore, mmu04612 Antigen processing and presentation” value (KTC1101 0.2μM, GSEA KEGG) was 0.2974 and the “enrichmentScore, mmu04622 RIG-I-like receptor signaling pathway” value (KTC1101 0.2μM, GSEA KEGG) was 0.2627. For the same molecule, the “enrichmentScore, mmu04623 Cytosolic DNA-sensing pathway” value (KTC1101 0.2μM, GSEA KEGG) was 0.3684, the “enrichmentScore, mmu04650 Natural killer cell mediated cytotoxicity” value (KTC1101 0.2μM, GSEA KEGG) was 0.2671 and the “enrichmentScore, mmu04658 Th1 and Th2 cell differentiation” value (KTC1101 0.2μM, GSEA KEGG) was 0.359. The “enrichmentScore, mmu04660 T cell receptor signaling pathway” value (KTC1101 0.2μM, GSEA KEGG) was 0.174, the “enrichmentScore, mmu04662 B cell receptor signaling pathway” value (KTC1101 0.2μM, GSEA KEGG) was 0.2749 and the “enrichmentScore, mmu04666 Fc gamma R-mediated phagocytosis” value (KTC1101 0.2μM, GSEA KEGG) was -0.2944. The “enrichmentScore, mmu04670 Leukocyte transendothelial migration” value (KTC1101 0.2μM, GSEA KEGG) was 0.2117, the “enrichmentScore, mmu04714 Thermogenesis” value (KTC1101 0.2μM, GSEA KEGG) was -0.2154 and the “enrichmentScore, mmu04720 Long-term potentiation” value (KTC1101 0.2μM, GSEA KEGG) was 0.2329. For the same molecule, the “enrichmentScore, mmu04723 Retrograde endocannabinoid signaling” value (KTC1101 0.2μM, GSEA KEGG) was 0.2816, the “enrichmentScore, mmu04726 Serotonergic synapse” value (KTC1101 0.2μM, GSEA KEGG) was 0.3744 and the “enrichmentScore, mmu04727 GABAergic synapse” value (KTC1101 0.2μM, GSEA KEGG) was 0.3552. For the same molecule, the “enrichmentScore, mmu04728 Dopaminergic synapse” value (KTC1101 0.2μM, GSEA KEGG) was 0.2754, the “enrichmentScore, mmu04730 Long-term depression” value (KTC1101 0.2μM, GSEA KEGG) was 0.3483 and the “enrichmentScore, mmu04750 Inflammatory mediator regulation of TRP channels” value (KTC1101 0.2μM, GSEA KEGG) was 0.2734. For the same molecule, the “enrichmentScore, mmu04910 Insulin signaling pathway” value (KTC1101 0.2μM, GSEA KEGG) was 0.2919, the “enrichmentScore, mmu04912 GnRH signaling pathway” value (KTC1101 0.2μM, GSEA KEGG) was 0.3311 and the “enrichmentScore, mmu04915 Estrogen signaling pathway” value (KTC1101 0.2μM, GSEA KEGG) was 0.2687. The “enrichmentScore, mmu04916 Melanogenesis” value (KTC1101 0.2μM, GSEA KEGG) was 0.2873, the “enrichmentScore, mmu04917 Prolactin signaling pathway” value (KTC1101 0.2μM, GSEA KEGG) was 0.2949 and the “enrichmentScore, mmu04920 Adipocytokine signaling pathway” value (KTC1101 0.2μM, GSEA KEGG) was 0.3361. The “enrichmentScore, mmu04929 GnRH secretion” value (KTC1101 0.2μM, GSEA KEGG) was -0.3021, the “enrichmentScore, mmu04930 Type II diabetes mellitus” value (KTC1101 0.2μM, GSEA KEGG) was 0.385 and the “enrichmentScore, mmu04932 Non-alcoholic fatty liver disease” value (KTC1101 0.2μM, GSEA KEGG) was -0.2292. The “enrichmentScore, mmu04934 Cushing syndrome” value (KTC1101 0.2μM, GSEA KEGG) was 0.2719, the “enrichmentScore, mmu04936 Alcoholic liver disease” value (KTC1101 0.2μM, GSEA KEGG) was 0.2103 and the “enrichmentScore, mmu04960 Aldosterone-regulated sodium reabsorption” value (KTC1101 0.2μM, GSEA KEGG) was 0.4243. For the same molecule, the “enrichmentScore, mmu04961 Endocrine and other factor-regulated calcium reabsorption” value (KTC1101 0.2μM, GSEA KEGG) was 0.3281, the “enrichmentScore, mmu04962 Vasopressin-regulated water reabsorption” value (KTC1101 0.2μM, GSEA KEGG) was 0.3811 and the “enrichmentScore, mmu04970 Salivary secretion” value (KTC1101 0.2μM, GSEA KEGG) was 0.3709. The “enrichmentScore, mmu04972 Pancreatic secretion” value (KTC1101 0.2μM, GSEA KEGG) was 0.3054, the “enrichmentScore, mmu05017 Spinocerebellar ataxia” value (KTC1101 0.2μM, GSEA KEGG) was -0.2487 and the “enrichmentScore, mmu05031 Amphetamine addiction” value (KTC1101 0.2μM, GSEA KEGG) was 0.3398. The “enrichmentScore, mmu05034 Alcoholism” value (KTC1101 0.2μM, GSEA KEGG) was 0.2877, the “enrichmentScore, mmu05100 Bacterial invasion of epithelial cells” value (KTC1101 0.2μM, GSEA KEGG) was 0.1912 and the “enrichmentScore, mmu05132 Salmonella infection” value (KTC1101 0.2μM, GSEA KEGG) was -0.223. The “enrichmentScore, mmu05133 Pertussis” value (KTC1101 0.2μM, GSEA KEGG) was 0.2038, the “enrichmentScore, mmu05134 Legionellosis” value (KTC1101 0.2μM, GSEA KEGG) was 0.3271 and the “enrichmentScore, mmu05135 Yersinia infection” value (KTC1101 0.2μM, GSEA KEGG) was 0.1452. The “enrichmentScore, mmu05145 Toxoplasmosis” value (KTC1101 0.2μM, GSEA KEGG) was 0.3104, the “enrichmentScore, mmu05160 Hepatitis C” value (KTC1101 0.2μM, GSEA KEGG) was -0.1925 and the “enrichmentScore, mmu05162 Measles” value (KTC1101 0.2μM, GSEA KEGG) was 0.3001. The “enrichmentScore, mmu05165 Human papillomavirus infection” value (KTC1101 0.2μM, GSEA KEGG) was 0.2105, the “enrichmentScore, mmu05170 Human immunodeficiency virus 1 infection” value (KTC1101 0.2μM, GSEA KEGG) was 0.2282 and the “enrichmentScore, mmu05200 Pathways in cancer” value (KTC1101 0.2μM, GSEA KEGG) was 0.2563. For the same molecule, the “enrichmentScore, mmu05203 Viral carcinogenesis” value (KTC1101 0.2μM, GSEA KEGG) was 0.2271, the “enrichmentScore, mmu05204 Chemical carcinogenesis - DNA adducts” value (KTC1101 0.2μM, GSEA KEGG) was -0.3876 and the “enrichmentScore, mmu05206 MicroRNAs in cancer” value (KTC1101 0.2μM, GSEA KEGG) was 0.2735. The “enrichmentScore, mmu05207 Chemical carcinogenesis - receptor activation” value (KTC1101 0.2μM, GSEA KEGG) was 0.2555, the “enrichmentScore, mmu05210 Colorectal cancer” value (KTC1101 0.2μM, GSEA KEGG) was 0.2135 and the “enrichmentScore, mmu05211 Renal cell carcinoma” value (KTC1101 0.2μM, GSEA KEGG) was -0.2497. The “enrichmentScore, mmu05212 Pancreatic cancer” value (KTC1101 0.2μM, GSEA KEGG) was -0.2279, the “enrichmentScore, mmu05213 Endometrial cancer” value (KTC1101 0.2μM, GSEA KEGG) was -0.2692 and the “enrichmentScore, mmu05214 Glioma” value (KTC1101 0.2μM, GSEA KEGG) was 0.2912. For the same molecule, the “enrichmentScore, mmu05216 Thyroid cancer” value (KTC1101 0.2μM, GSEA KEGG) was 0.217, the “enrichmentScore, mmu05218 Melanoma” value (KTC1101 0.2μM, GSEA KEGG) was 0.3678 and the “enrichmentScore, mmu05219 Bladder cancer” value (KTC1101 0.2μM, GSEA KEGG) was 0.2813. For the same molecule, the “enrichmentScore, mmu05220 Chronic myeloid leukemia” value (KTC1101 0.2μM, GSEA KEGG) was 0.2762, the “enrichmentScore, mmu05223 Non-small cell lung cancer” value (KTC1101 0.2μM, GSEA KEGG) was -0.2111 and the “enrichmentScore, mmu05231 Choline metabolism in cancer” value (KTC1101 0.2μM, GSEA KEGG) was 0.3293. For the same molecule, the “enrichmentScore, mmu05235 PD-L1 expression and PD-1 checkpoint pathway in cancer” value (KTC1101 0.2μM, GSEA KEGG) was 0.291, the “enrichmentScore, mmu05412 Arrhythmogenic right ventricular cardiomyopathy” value (KTC1101 0.2μM, GSEA KEGG) was 0.3444 and the “enrichmentScore, mmu05416 Viral myocarditis” value (KTC1101 0.2μM, GSEA KEGG) was 0.3314. For the same molecule, the “enrichmentScore, mmu05417 Lipid and atherosclerosis” value (KTC1101 0.2μM, GSEA KEGG) was 0.3016, the “NES: Coronavirus disease - COVID-19” value ([…], KTC 0.2μM) was 2.023 and the “enrichmentScore: Coronavirus disease - COVID-19” value ([…], KTC 0.2μM) was 0.5276.
